# Laboratory results taken from patent publication US11724997B2, “Compounds and compositions for treating conditions associated with APJ receptor activity” (Annapurna Bio, Inc., priority 2018, dated 2023).
# Molecular target: T1, APJ Receptor (Homo sapiens, UniProt P35414)
# T1 sequence (P35414 1-380): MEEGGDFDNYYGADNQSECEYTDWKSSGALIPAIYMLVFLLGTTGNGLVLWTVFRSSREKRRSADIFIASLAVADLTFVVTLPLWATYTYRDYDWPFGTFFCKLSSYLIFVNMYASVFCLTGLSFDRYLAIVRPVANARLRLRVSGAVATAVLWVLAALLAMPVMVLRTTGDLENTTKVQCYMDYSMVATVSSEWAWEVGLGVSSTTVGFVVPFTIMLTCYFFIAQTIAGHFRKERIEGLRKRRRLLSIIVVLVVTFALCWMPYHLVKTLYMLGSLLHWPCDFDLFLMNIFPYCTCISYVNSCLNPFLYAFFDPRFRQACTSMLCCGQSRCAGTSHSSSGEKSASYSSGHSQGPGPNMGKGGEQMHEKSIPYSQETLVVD
# Test: APJ cAMP assay: inhibition of forskolin-stimulated cAMP, enzyme fragment complementation, in CHO-K1 cells stably expressing the APJ Receptor
# Format: cell-based
# Conditions: CHO-K1 cell line (DiscoverX) stably expressing APJ Receptor; EC80 forskolin; 30 minutes at 37° C.; read-out: APJ cAMP EC50 Potency range
# Description: Activation of APJ receptor is known to inhibit forskolin-stimulated cyclic AMP (cAMP) production in cells in a pertussis toxin-sensitive manner which indicates primary coupling to the GαI subunit of the G protein heterotrimeric complex. In addition to signaling through G protein and inhibition of cAMP, APJ receptor activation also results in β-arrestin recruitment, receptor internalization and activation of extracellular-regulated kinases (ERKs).
# In order to optimize functional activity directed toward Gi coupling we utilized a CHO-K1 cell line developed by DiscoverX stably expressing the APJ Receptor. Cells expressing APJR receptor were plated in a 384-well microtiter plates and incubated overnight at 37° C. with 5% CO2 to allow the cells to attach and grow. Media was then aspirated from the cells and replaced with 15 uL 2:1 Hanks Balanced Salt Solution (HBSS)/10 mM Hepes. cAMP XS+ Ab reagent. Five microliters (5 uL) of previously generated compound sample stocks at 4× final concentration in assay buffer containing 4×EC80 forskolin were then added to the cells and allowed to incubate at 37° C. for 30 minutes.
# After incubation the assay signal was generated using a technology termed enzyme fragment complementation (EFC). In EFC the enzyme B-galactosidase is split into two complementary portions (EA and ED). The fragment ED is fused to cAMP and in the assay format competes with endogenous cAMP for binding to a cAMP specific antibody. Activated B-Gal is formed when exogenous EA fragment binds to free ED-cAMP (not bound to cAMP specific antibody). Activated enzyme levels are detected through conversion of B-gal chemiluminescent substrate which generates a detectable luminescence signal and read on standard microtiter plate.
# The methodology for detection of cAMP using EFC requires incubation with 20 uL of cAMP XS+ ED/CL lysis cocktail for one hour followed by incubation with 20 uL cAMP XS+ EA reagent for three hours at room temperature. Microplates were read following signal generation with a PerkinElmer Envision instrument utilizing chemiluminescent signal detection.
# Compound activity was analyzed using CBIS data analysis suite (ChemInnovation, CA).
# Percentage activity was calculated using the following formula: % Activity=[…]×(1−(mean RLU of test sample−mean RLU of Max control)/(mean RLU of vehicle control−mean RLU of Max control))
# The biological activity of the exemplified compounds of this invention determined by the assay described above is shown in Table 1. The APJ cAMP EC50 potency ranges are as follows: A: EC50<1 nM; B: 1≤EC50<100 nM; and C: 100≤EC50<10,000 nM.
row,Compound,EC50 [nM]
1,"COc1cccc(OC)c1-n1c(C(=O)NS(=O)(=O)Cc2ncccn2)nnc1-c1cncc(C)c1 [Example 59, 4-(2,6-Dimethoxyphenyl)-5-(5-methylpyridin-3-yl)-N-((pyrimidin-2-ylmethyl)sulfonyl)-4H-1,2,4-triazole-3-carboxamide]",100 to 10000
2,"COc1cccc(-c2nnc(C(=O)NS(=O)(=O)Cc3ccccc3)n2-c2c(Cl)cccc2Cl)n1 [Example 60, N-(benzylsulfonyl)-4-(2,6-dichlorophenyl)-5-(6-methoxypyridin-2-yl)-4H-1,2,4-triazole-3-carboxamide]",100 to 10000
3,"COc1cccc(-c2nnc(C(=O)NS(=O)(=O)Cc3ccccc3)n2-c2c(F)cccc2F)n1 [Example 61, N-(benzylsulfonyl)-4-(2,6-difluorophenyl)-5-(6-methoxypyridin-2-yl)-4H-1,2,4-triazole-3-carboxamide]",100 to 10000
4,"COc1cccc(-c2nnc(C(=O)NS(=O)(=O)Cc3ccccc3)n2-c2c(OC)cccc2C(F)(F)F)n1 [Example 62, N-(benzylsulfonyl)-4-(2-methoxy-6-(trifluoromethyl)phenyl)-5-(6-methoxypyridin-2-yl)-4H-1,2,4-triazole-3-carboxamide]",1 to 100
5,"COc1cccc(-c2nnc(C(=O)NS(=O)(=O)Cc3ccccc3)n2-c2c(F)cccc2OC)n1 [Example 63, N-(benzylsulfonyl)-4-(2-fluoro-6-methoxyphenyl)-5-(6-methoxypyridin-2-yl)-4H-1,2,4-triazole-3-carboxamide]",1 to 100
6,"COc1ccc(Cn2nc(C3CC3)nc2-c2nnc(C(=O)NS(=O)(=O)Cc3ccccc3)n2-c2c(OC)cccc2OC)cc1 [Example 64, N-(benzylsulfonyl)-5-cyclopropyl-4′-(2,6-dimethoxyphenyl)-2-(4-methoxybenzyl)-2H,4′H-[3,3′-bi(1,2,4-triazole)]-5′-carboxamide]",100 to 10000
7,"COc1cccc(OC)c1-n1c(C(=O)NS(=O)(=O)Cc2ccccc2)nnc1-c1nc(C2CC2)n[nH]1 [Example 65, N-(benzylsulfonyl)-5-cyclopropyl-4′-(2,6-dimethoxyphenyl)-2H,4′H-[3,3′-bi(1,2,4-triazole)]-5′-carboxamide]",100 to 10000

# Next, values leading:
row,EC50 [nM],Compound
1,< 1,"CCOc1cccc(-c2nnc(C(=O)NS(=O)(=O)Cc3ncn(C)n3)n2-c2c(OC)cccc2OC)n1 [Example 54, 4-(2,6-Dimethoxyphenyl)-5-(6-ethoxypyridin-2-yl)-N-(((1-methyl-1H-1,2,4-triazol-3-yl)methyl)sulfonyl)-4H-1,2,4-triazole-3-carboxamide]"
2,< 1,"COc1cccc(OC)c1-n1c(C(=O)NS(=O)(=O)Cc2ncn(C)n2)nnc1-c1ccc(C)o1 [Example 55, 4-(2,6-Dimethoxyphenyl)-N-(((1-methyl-1H-1,2,4-triazol-3-yl)methyl)sulfonyl)-5-(5-methylfuran-2-yl)-4H-1,2,4-triazole-3-carboxamide]"
3,< 1,"CCOc1cccc(-c2nnc(C(=O)NS(=O)(=O)Cc3cccnc3)n2-c2c(OC)cccc2OC)n1 [Example 56, 4-(2,6-Dimethoxyphenyl)-5-(6-ethoxypyridin-2-yl)-N-((pyridin-3-ylmethyl)sulfonyl)-4H-1,2,4-triazole-3-carboxamide]"
4,< 1,"CCOc1cccc(-c2nnc(C(=O)NS(=O)(=O)C(C)Cc3ccccc3)n2-c2c(OC)cccc2OC)n1 (stereo not drawn) [Example 57, 4-(2,6-Dimethoxyphenyl)-5-(6-ethoxypyridin-2-yl)-N-((1-phenylpropan-2-yl)sulfonyl)-4H-1,2,4-triazole-3-carboxamide]"
5,1 to 100,"COc1cccc(OC)c1-n1c(C(=O)NS(=O)(=O)Cc2ncccn2)nnc1-c1cccc(OC(F)(F)F)n1 [Example 58, 4-(2,6-Dimethoxyphenyl)-N-((pyrimidin-2-ylmethyl)sulfonyl)-5-(6-(trifluoromethoxy)pyridin-2-yl)-4H-1,2,4-triazole-3-carboxamide]"
